Test results reported in patent publication US10307404B1, “Ocular formulations for drug-delivery to the posterior segment of the eye” (priority 2013, dated 2019).
Read-outs that look alike come from different tables or passages of the source.

Assays:
[1] = PK of topical ocular sodium phosphate-based Gel Drop, concentrations 1 hour after last dose; type: in vivo, Dutch-belted rabbits; settings: Dutch-belted, rabbit
Text: The Gel Drop of Compound-I was applied to eyes of Dutch-belted rabbits.

[2] = 30-day topical ocular tolerability of cyclodextrin-based solutions; type: in vivo
[3] = Corneal and choroid exposure compared between formulations (topical ocular dosing); type: in vivo, Dutch-belted rabbits
Text: Overall, the combination of decreased corneal exposure and corresponding improved ocular tolerability, while simultaneously maintaining or promoting drug delivery to the posterior segment target tissues, along with improved physicochemical stability, will provide greater benefit to patients compared to the ophthalmic Gel Drop formulation.

Compound: Cl.NC(=O)c1c(OCc2c(F)cc(Br)cc2F)nsc1NC(=O)NCCCCN1CCCC1 [Compound-I, 3-[(4-bromo-2,6-difluorophenyl)methoxy]-5-[[[[4-(1-pyrrolidinyl)butyl]amino]carbonyl]amino]-4-isothiazolecarboxamide hydrochloride]
- concentration at 1 h ([1]; choroid, 5 mg/ml, pH 6, 5 mg/ml pH 6 Phos 0.2% BAK 0.005% Gly 2% Osmo 273, 3x/day 5 days, read-out: MEAN [choroid]): 1160 nM
- concentration at 1 h ([1]; choroid, 5 mg/ml, pH 6, 5 mg/ml pH 6 Phos 0.2% BAK 0.005% Gly 2% PS80 1% Polox 0.2% Osmo 288, 3x/day 5 days, read-out: MEAN [choroid]): 612 nM
- concentration at 1 h ([1]; choroid, 6 mg/ml, pH 5.9, 6 mg/ml pH 5.9 Phos 0.05% BAK 0.005% Gly 2% PS80 1% Tylox 0.1% Polox 0.2% Osmo 270, 3x/day 4 days, read-out: MEAN [choroid]): 22.4 nM
- concentration at 1 h ([1]; choroid, 6 mg/ml, pH 5.9, 6 mg/ml pH 5.9 Phos […] Osmo 80, 3x/day 4 days, read-out: MEAN [choroid]): 823 nM
- concentration at 1 h ([1]; choroid, 6 mg/ml, pH 6.1, 6 mg/ml pH 6.1 Phos 0.05% BAK 0.005% Gly 2% PS80 1% Tylox 0.1% Osmo 248, 3x/day 5 days, read-out: MEAN [choroid]): 779 nM
- concentration at 1 h ([1]; plasma, 1 mg/ml, pH 6, 1 mg/ml pH 6.0 Phos 0.05% BAK 0.005% Gly 2% PS80 0.01% Tylox 0.2%, 3x/day 5 days, read-out: [plasma]): 3.49 nM
- concentration at 1 h ([1]; plasma, 1 mg/ml, pH 6, 1 mg/ml pH 6 Phos 0.05% BAK 0.005% Gly 2%, 3x/day 5 days, read-out: [plasma]): 4.45 nM
- concentration at 1 h ([1]; plasma, 1 mg/ml, pH 6, 1 mg/ml pH 6.0 Phos 0.2% BAK 0.005% Gly 2% PS80 1% Tylox 0.2%, 3x/day 5 days, read-out: [plasma]): 2.89 nM
- concentration at 1 h ([1]; plasma, 1 mg/ml, pH 6, 1 mg/ml pH 6.0 Phos 0.2% BAK 0.005% Gly 2%, 3x/day 5 days, read-out: [plasma]): 3.97 nM
- concentration at 1 h ([1]; plasma, 2 mg/ml, pH 6, 2 mg/ml pH 6 BAK 0.005% Gly 2% Osmo 232, 3x/day 5 days, read-out: [plasma]): 5.41 nM
- concentration at 1 h ([1]; plasma, 2 mg/ml, pH 6, 2 mg/ml pH 6.0 Phos 0.02% BAK 0.005% Gly 2% PS80 1% Tylox 0.2%, 3x/day 5 days, read-out: [plasma]): 4.46 nM
- concentration at 1 h ([1]; plasma, 2 mg/ml, pH 6, 2 mg/ml pH 6 Phos 0.05% BAK 0.005% Gly 2% Osmo 244, 3x/day 5 days, read-out: [plasma]): 5.92 nM
- concentration at 1 h ([1]; plasma, 2 mg/ml, pH 6, 2 mg/ml pH 6 Phos 0.05% BAK 0.005% Gly 2% PS80 1% Osmo 261, 3x/day 5 days, read-out: [plasma]): 4.15 nM
- concentration at 1 h ([1]; plasma, 2 mg/ml, pH 6, 2 mg/ml pH 6.0 Phos 0.05% BAK 0.005% Gly 2% PS80 1% Tylox 0.2%, 3x/day 5 days, read-out: [plasma]): 4.36 nM
- concentration at 1 h ([1]; plasma, 2 mg/ml, pH 6, 2 mg/ml pH 6.0 Phos 0.05% BAK 0.005% Gly 2%, 3x/day 5 days, read-out: [plasma]): 5.79 nM
- concentration at 1 h ([1]; plasma, 2 mg/ml, pH 6, 2 mg/ml pH 6.0 Phos 0.1% BAK 0.005% Gly 2%, 3x/day 5 days, read-out: [plasma]): 5.71 nM
- concentration at 1 h ([1]; plasma, 2 mg/ml, pH 6, 2 mg/ml pH 6 Phos 0.2% BAK 0.005% Gly 2% Osmo 257, 3x/day 5 days, read-out: [plasma]): 5.26 nM
- concentration at 1 h ([1]; plasma, 2 mg/ml, pH 6, 2 mg/ml pH 6 Phos 0.2% BAK 0.005% Gly 2% PS80 1% Osmo 281, 3x/day 5 days, read-out: [plasma]): 4.94 nM
- concentration at 1 h ([1]; plasma, 2 mg/ml, pH 6, 2 mg/ml pH 6.0 Phos 0.2% BAK 0.005% Gly 2%, 3x/day 5 days, read-out: [plasma]): 4.47 nM
- concentration at 1 h ([1]; plasma, 2 mg/ml, pH 6.1, 2 mg/ml pH 6.1 Phos […] Osmo 34, 3x/day 4 days, read-out: [plasma]): 4.81 nM
- concentration at 1 h ([1]; plasma, 4 mg/ml, pH 6, 4 mg/ml pH 6.0 Phos 0.2% BAK 0.005% Gly 2%, 3x/day 5 days, read-out: [plasma]): 5.84 nM
- concentration at 1 h ([1]; plasma, 4 mg/ml, pH 6, 4 mg/ml pH 6.0 Phos 2% BAK 0.005% Gly 2% PS80 1% Tylox 0.2%, 3x/day 5 days, read-out: [plasma]): 8.06 nM
- concentration at 1 h ([1]; plasma, 6 mg/ml, pH 5.9, 6 mg/ml pH 5.9 Phos 0.05% BAK 0.005% Gly 2% PS80 1% Tylox 0.1% Polox 0.2% Osmo 270, 3x/day 4 days, read-out: [plasma]): 15.6 nM
- concentration at 1 h ([1]; plasma, 6 mg/ml, pH 5.9, 6 mg/ml pH 5.9 Phos 0.1% BAK 0.005% Gly 2% Polox 0.2% Osmo 257, 3x/day 4 days, read-out: [plasma]): 8.43 nM
- concentration at 1 h ([1]; retina, 1 mg/ml, pH 6, 1 mg/ml pH 6.0 Phos 0.05% BAK 0.005% Gly 2% PS80 0.01% Tylox 0.2%, 3x/day 5 days, read-out: Mean [retina]): 46.8 nM
- concentration at 1 h ([1]; retina, 1 mg/ml, pH 6, 1 mg/ml pH 6.0 Phos 0.2% BAK 0.005% Gly 2% PS80 1% Tylox 0.2%, 3x/day 5 days, read-out: Mean [retina]): 32.7 nM
- concentration at 1 h ([1]; retina, 1 mg/ml, pH 6, 1 mg/ml pH 6.0 Phos 0.2% BAK 0.005% Gly 2%, 3x/day 5 days, read-out: Mean [retina]): 90.8 nM
- concentration at 1 h ([1]; retina, 2 mg/ml, pH 6, 2 mg/ml pH 6.0 Phos 0.02% BAK 0.005% Gly 2% PS80 1% Tylox 0.2%, 3x/day 5 days, read-out: Mean [retina]): 92.9 nM
- concentration at 1 h ([1]; retina, 2 mg/ml, pH 6, 2 mg/ml pH 6 Phos 0.05% BAK 0.005% Gly 2% Osmo 244, 3x/day 5 days, read-out: Mean [retina]): 121 nM
- concentration at 1 h ([1]; retina, 2 mg/ml, pH 6, 2 mg/ml pH 6 Phos 0.05% BAK 0.005% Gly 2% PS80 1% Osmo 261, 3x/day 5 days, read-out: Mean [retina]): 126 nM
- concentration at 1 h ([1]; retina, 2 mg/ml, pH 6, 2 mg/ml pH 6.0 Phos 0.05% BAK 0.005% Gly 2% PS80 1% Tylox 0.2%, 3x/day 5 days, read-out: Mean [retina]): 85.7 nM
- concentration at 1 h ([1]; retina, 2 mg/ml, pH 6, 2 mg/ml pH 6.0 Phos 0.05% BAK 0.005% Gly 2%, 3x/day 5 days, read-out: Mean [retina]): 113 nM
- concentration at 1 h ([1]; retina, 2 mg/ml, pH 6, 2 mg/ml pH 6.0 Phos 0.1% BAK 0.005% Gly 2%, 3x/day 5 days, read-out: Mean [retina]): 42.9 nM
- concentration at 1 h ([1]; retina, 2 mg/ml, pH 6, 2 mg/ml pH 6.0 Phos 0.2% BAK 0.005% Gly 2%, 3x/day 5 days, read-out: Mean [retina]): 34.8 nM
- concentration at 1 h ([1]; retina, 4 mg/ml, pH 6, 4 mg/ml pH 6.0 Phos 0.2% BAK 0.005% Gly 2%, 3x/day 5 days, read-out: Mean [retina]): 68.3 nM
- concentration at 1 h ([1]; retina, 4 mg/ml, pH 6, 4 mg/ml pH 6.0 Phos 2% BAK 0.005% Gly 2% PS80 1% Tylox 0.2%, 3x/day 5 days, read-out: Mean [retina]): 97.6 nM
- findings attributed to test-article or vehicle ([2]; 0.6% cyclodextrin-based solution, 30 days of topical ocular dosing): no untoward findings
- ocular toxicity, clinical ophthalmic or microscopic examinations ([2]; rabbit, in vivo): No overt ocular toxicity
- tolerability ([2]; rabbit, in vivo): well tolerated
- reduction in corneal concentrations versus equimolar Gel Drop ([3]; cyclodextrin-based solutions, 1 to 30 days dosing, Dutch-belted rabbits): ~10 ×
- clinical or histopathologic findings ([3]; ophthalmic solution, repeated topical ocular dosing, rabbits and dogs): free of untoward clinical or histopathologic findings
- target therapeutic exposure in the central choroid versus equimolar ophthalmic gel drop ([3]; ophthalmic solution, topical ocular dosing): equal or higher
- corneal concentrations, Gel Drop compared to Tris-based suspensions ([3]; rabbit, in vivo): fifty-fold to hundred-fold higher
- corneal concentrations, Gel Drop compared to cyclodextrin based solution ([3]; rabbit, in vivo): five-fold to fifteen-fold higher
- reduction of exposure (cornea) ([3]; suspension-based and cyclodextrin formulations): 10-100 ×
